Source: patent US7033829B2, “Method to inhibit cell growth using oligonucleotides” (Trustees of Boston University, priority 2000, dated 2006)
Oligonucleotides are written 5' to 3', each unit as a sugar letter and its base; * is a phosphorothioate linkage, no mark a phosphodiester; rarer units and linkages stand in square brackets, end groups in braces. Plain capitals give the bases only. d = 2'-deoxy (DNA); {P} = phosphate

What was measured:
human melanocytes = assay: Melanogenesis in human melanocytes; assay type: cell-based; details: after one week in culture
telomere 3′ overhang = assay: 3′ overhang assay in fibroblasts; assay type: cell-based, human; details: 40 μM; up to 7 days
NBS fibroblasts = assay: FACS analysis of NBS fibroblasts; assay type: cell-based, human; details: 40 μM
Description: Fibroblasts were obtained from an NBS (Nijmegen breakage syndrome) patient, in which p95/Nbs1 was below the level of detection. Preconfluent cultures or normal (control) fibroblasts and NBS fibroblasts were treated with 40 μM of the oligonucleotides and collected after 48 hours for FACS analysis (FIGS. 34A–34H). The averages and standard deviations were calculated from triplicate cultures of each condition. FACS profiles from one representative experiment of three are shown.

[1] = tested on: serine 15-phosphorylated p53, E2F1 (cells lacking functional ATM); assay: Western blot of p53 serine 15 phosphorylation and E2F1 in AT fibroblasts; assay type: cell-based, human; details: 40 μM; 48 hours
Description: Because the serine 15 site on p53 is known to be phosphorylated in an ATM-dependent manner after exposure to ionizing radiation (IR), we wished to examine the role of ATM in E2F1 induction and p53 serine 15 phosphorylation in response to the 11 mer-1. Fibroblasts from a patient with ataxia telangiectasia (AT) known to lack functional ATM protein, and age-matched normal control fibroblasts (N) were treated with either diluent, 40 μM 11mer-1, sham irradiation or IR (10 Gy). Cells were collected 3 hours (sham or IR) or 48 hours (diluent, 11mer-1) for western blot analysis to detect serine 15-phosphorylated p53 and total p53. In normal fibroblasts, the 11mer-1 induced a 10–15 fold increase in the level p53 phosphorylation on serine 15 compared to diluent-treated controls.

[2] = tested on: human melanoma line MM-AN; assay: FACS analysis of MM-AN melanoma cells; assay type: cell-based; details: 40 μM
Description: Proteins were analyzed by denaturing polyacrylamide gel electrophoresis (SDS-PAGE), using 10% polyacrylamide, and western blot analysis was done with an E2F1-specific monoclonal antibody (KH95 Santa Cruz Biotechnology, Santa Cruz, Calif.), and p73 analyzed using a polyclonal antibody (AB-4 from Oncogene Research Products, San Diego, Calif.). […] In order to determine the contribution of p73 to cell death, MM-AN melanoma cells were stably transfected with a dominant negative p73 (p73DN) (Irwin et al., Nature 402:645–648) construct or empty vector as a control (p73^DN-containing vector a gift from Dr. William Kaelin, Dana Farber Institute, Boston) and paired cultures were supplemented with 40 μM 11mer-1 or diluent alone, then harvested at 72 hours for FACS analysis. […] The above-mentioned differentiation markers are expressed in normal human melanocytes. It appears that the loss of expression of these antigens is a mechanism that a subset of human melanomas uses to escape immunosurveillance defenses. Several peptides from these antigens are targets of tumor infiltrating cytotoxic lymphocytes. Encouraging results have been obtained in vivo with different vaccination strategies using antigenic peptides from the above antigens.

[3] = tested on: Cu/Zn superoxide dismutase; assay: Cu/Zn superoxide dismutase mRNA in fibroblasts; assay type: cell-based; details: 48 and 72 hours after treatment
[4] = tested on: squamous carcinoma line SCC12F; assay: Cell yields of UVA-irradiated SCC12F cells after pretreatment; assay type: cell-based, human; details: 100 μM 3 days pretreatment; 10 J/cm^2 UVA
Description: Cells from the well differentiated squamous carcinoma line SCC12F (gift of Dr. James Rheinwald, Harvard University) were treated with 100 μM pTpT or diluent as control for 3 days. Then cells were re-plated in medium lacking pTpT and were sham- or UV-irradiated with 10 J/cm^2 UVA (Sellas Sunlight UVA lamp). Cell yields were determined at different intervals after UV irradiation.

SOD2 = SOD2 western blot in fibroblasts; assay type: cell-based, human; details: 100 μM
Description: Fibroblasts (newborn human) were maintained in Dulbecco's Modified Eagle Medium (DMEM) supplemented with 10% calf serum (CS) and 100 μM pTpT or diluent as control. Total cellular proteins were harvested at different intervals after stimulation and processed for western blot analysis. The blot was reacted with anti SOD2 antibodies (The Binding Site, Inc. San Diego, Calif.). […] Coomassie blue-stained residual bands on the gel confirmed uniform loading of the different lanes.

[5] = tested on: tumor necrosis factor alpha gene (TNFα); assay: Northern blot of TNFα in keratinocytes; assay type: cell-based, human; details: 24–72 hours
From the text: This immunomodulatory cytokine, known to be induced by UV irradiation, may thus be induced by T2. Use of locally applied DNA fragments, deoxynucleotides, dinucleotides, or dinucleotide dimers is useful in immunomodulation of cutaneous reactions and in treatment or prevention of diseases or conditions involving immune mediators.

[6] = tested on: basal keratinocytes (epidermal cell proliferation); assay: Epidermal labeling index after topical application; assay type: in vivo, Guinea pigs; details: 100 μM topical, three days, mean ± SD
Description: Guinea pigs received one or two daily topical applications of 100 μM pTpT, or vehicle alone as control, for three days. On the fourth day, punch biopsies were obtained and maintained for 7 or 8 hours in primary keratinocyte medium supplemented with 10 μCi/ml ^3H-thymidine (specific activity 9.0 Ci/m mole, NEN). Proliferating cells are expected to incorporate the ^3H-thymidine into newly synthesized DNA. Tissues were then rinsed with cold medium and fixed in 10% phosphate buffered formalin. After a series of dehydration steps, tissues were embedded in paraffin. 6 μm sections were cut and mounted onto glass slides, dipped in NTB-2 Nuclear Track emulsion and kept in the dark at 4° C. for 7 days. Sections were developed in Kodak D-19 developer and stained with hematoxylin and eosin. Labeling index, a measure of DNA replication and therefore cell proliferation, was measured by calculating the percentage of labeled nuclei among 100 basal keratinocytes.

[7] = tested on: Human cervical carcinoma cells (HeLa cells); assay: Cell growth of HeLa cells; assay type: cell-based; details: 100 μM; 1, 4 and 6 days after dosage
Description: Human cervical carcinoma cells (HeLa cells) were maintained in DME+10% calf serum and dosed with either water (diluent) or 100 μM T2. Cells were collected 1, 4 and 6 days after dosage and counted by Coulter™ counter.

Substance: pGAGTATGAG (DNA, 5' {P}, backbone not given here) [SEQ ID NO: 1]
- increase in melanogenesis (human melanocytes): 51–62%

Substance: pGTTAGGGTTAG (DNA {P}-dGdTdTdAdGdGdGdTdTdAdG) [SEQ ID NO: 5]
- degradation of the telomere 3′ overhang (telomere 3′ overhang): did not result in degradation of the telomere 3′ overhang
- proliferation compared to diluent-treated NBS cells (NBS fibroblasts): minimally affected
- increase in the number of S-phase cells compared to diluent (NBS fibroblasts; 48 hours, not statistically significant (p<0.08)): 8%
- increase in p53 phosphorylation on serine 15 [1]: < 50%
- cell cycle [2]: first entered an S-phase arrest
- apoptosis rate of cells expressing p73^DN ([2]; 72 hours): at half the rate of control cells
- apoptosis (sub-G0/G1 DNA content) ([2]; by 72 hours): a substantial portion of the cells were undergoing apoptosis

Substance: thymidine dinucleotide [pTpT]
- increase of Cu/Zn superoxide dismutase mRNA levels [3]: greater than 3 fold
- yields of UVA irradiated cells [4]: increased the yields of UVA irradiated cells
- SOD2 protein induction (SOD2): SOD2 induction was sustained at least through 32 hours
- TNFα gene expression (Northern blot) [5]: induction of the tumor necrosis factor alpha gene
- Labeling Index (percentage of labeled nuclei among 100 basal keratinocytes) ([6]; 1 daily application): 2 ± 0
- Labeling Index (percentage of labeled nuclei among 100 basal keratinocytes) ([6]; 2 daily applications): 1.5 ± 0.7
- cell growth rate [7]: marked decreases in cell growth rate
